Experimental data taken from article PMC12402836, “Taste Profile and Relative Bioavailability of Tovorafenib Powder for Oral Suspension and Food Effect of the Tovorafenib Tablet in Healthy Participants” (Clinical Pharmacology in Drug Development, 2025).
Where two headings read alike, the source gives them in different places.

Key:
[1] = design: method as in PMID 37219686; details: cited from earlier work
[2] = test system: CYP2C8, CYP2C9, CYP2C19, CYP3A, CYP1A2, CYP2B6; design: method as in PMID 38967715, PMID 39412085; details: at clinically relevant concentrations, cited from earlier work
relapsed/refractory pLGG = test system: relapsed/refractory pLGG; design: method as in PMID 39808502, PMID 37978284; details: cited from earlier work
[3] = Safety assessments (adverse events, laboratory, vital signs, ECG); format: in vivo
Excerpt: Safety evaluations included analysis of AEs, laboratory variables (hematology, clinical chemistry, and urinalysis), vital signs, electrocardiogram, and a physical examination. AEs were coded using the Medical Dictionary for Regulatory Activities Version 24.0. […] Treatment‐emergent AEs (TEAEs) were summarized by frequency, severity, and relatedness to the study drug. TEAE frequency (the number of TEAEs and the number of participants experiencing a TEAE) was tabulated by system organ class and preferred term. In the per‐participant analyses, a participant having the same event more than once was counted only once.

[4] = test system: aldehyde oxidase and cytochrome P450 (CYP) 2C8, CYP3A, CYP2C9, CYP2C19; design: method as in PMID 38967715, PMID 39412085; details: in vitro, minor contributions from CYP3A; cited from earlier work
[5] = test system: breast cancer resistance protein; design: method as in PMID 38967715, PMID 39412085; details: at clinically relevant concentrations; cited from earlier work
[6] = Relative bioavailability and food-effect pharmacokinetics (Part 2, 3-period crossover); format: in vivo, human
Procedure: In Part 2 of the study, 12 participants were randomized to 1 of 3 sequences (T[fast]S[fast]T[fed], S[fast]T[fed]T[fast], and T[fed]T[fast]S[fast]) (Figure S1B). In each treatment period, tovorafenib was administered on Day 1 as a tablet under fasted (T[fast]), as PfOS under fasted (S[fast]), or as a tablet after a high‐fat meal (T[fed]). Tovorafenib was administered in the morning after an overnight fast of 10 hours or more. For treatment groups T[fast] and S[fast], tovorafenib was given under fasted conditions (ie, no breakfast), while for the T[fed] group, it was administered 30 minutes after the start of a high‐fat meal. A total of 240 mL of water was administered with each tovorafenib tablet. For the PfOS, immediately after administration, the dosing vessel was rinsed with water, and participants were required to consume the rinse solution and additional water up to a total volume of 240 mL (including the dosing volume and volume used to rinse the dosing vessel). If needed, additional water in 50‐mL aliquots was provided and recorded but was not classed as a protocol deviation. Participants were required to fast for 4 hours or more after single‐dose administration of the tovorafenib tablet. The composition of the high‐fat meal consisted of 800‐1000 calories, of which approximately 54% of calories were from fat. To be eligible for dosing, participants were required to consume at least 90% of the meal provided. Intake of fluids was prohibited 1 hour before dosing until 1 hour after dosing, except for fluid consumed with breakfast before dosing and water for tovorafenib tablet intake. Blood samples were collected at regular intervals (see Blood Collection and Processing for PK Analysis in the Pharmacokinetic Assessments section for more details) for PK analysis from before dosing to 120 hours after dosing. […]
Plasma concentrations of tovorafenib were determined by a validated liquid chromatography with tandem mass spectrometry–based method with a lower limit of quantification of 0.5 ng/mL. […]

[7] = design: method as in PMID 38967715, PMID 39412085; details: cited from earlier work
[8] = 20-280 mg every 2 days and 400-800 mg every week

- half-life ([6]; human, plasma, oral, range over regimens, 100 and 300 mg, read-out: Mean t1/2 values from the 3 treatment regimens): 62 to 89.5 h
- AUC0‐last at 300 mg relative to 100 mg ([6]; single doses): ~2.5 fold
- Cmax at 300 mg relative to 100 mg ([6]; single doses): approximately 2.3 fold
Structure (SMILES): C[C@@H](NC(=O)c1ncnc(N)c1Cl)c1ncc(C(=O)Nc2cc(C(F)(F)F)c(Cl)cn2)s1 [tovorafenib, 6‐amino‐5‐chloro‐N‐[(1R)‐1‐[5‐[[[5chloro‐4‐(trifluoromethyl)‐2‐pyridinyl]amino]carbonyl]‐2‐thiazolyl]ethyl]‐4‐pyrimidinecarboxamide]
- Dose proportionality of peak plasma concentration and exposure [1, 8]: roughly dose‐proportional
- half-life [1, 8]: approximately 70 hours
- Median tmax ([1]; after dosing): 3 h
- Mean t1/2 ([1]; patients, 600 mg, multiple administrations): approximately 70 hours
- Effect on CYP1A2 and CYP2B6 [2]: induces
- Effect on CYP2C8, CYP2C9, CYP2C19, and CYP3A ([2]; in vitro): both inhibits and induces
- Overall response rate (relapsed/refractory pLGG; 76 evaluable patients, 420 mg/m^2 once weekly (600 mg maximum), independent radiology review, RAPNO low-grade glioma criteria): 51%
- Median duration of response (relapsed/refractory pLGG; FIREFLY-1 arm 1, 420 mg/m^2 once weekly): 13.8 months
- Severity of all AEs ([3]; 100 mg dose regimens): mild
- Myalgia, events ([3]; 300 mg): 10 events
- Nonserious musculoskeletal AEs, mild ([3]; 300 mg): 5 participants
- Nonserious musculoskeletal AEs, moderate ([3]; 300 mg): 3 participants
- Nonserious musculoskeletal AEs, severe ([3]; 300 mg): 4 participants
- Moderate AEs ([3]; 300 mg dose regimens): 7
- Participants with nonserious musculoskeletal AEs ([3]; 300 mg, Period 1): 12 participants
- Myalgia, participants reporting ([3]; 300 mg, [83.3%]): 10 participants
- TEAEs reported during Part 1 ([3]; Part 1, sip and spit of PfOS formulations, n = 12): no TEAEs
- Serious AEs or AEs leading to study drug discontinuation ([3]; Part 2): no serious AEs or AEs leading to study drug discontinuation
- TEAEs related to tovorafenib ([3]; Part 2, all regimens): 60
- Total TEAEs ([3]; Part 2, all regimens): 71
- Participants reporting TEAEs ([3]; Part 2, all regimens, N = 12): 12 participants
- Laboratory, vital sign, electrocardiogram, physical examination findings ([3]; either part of the study): no clinically significant abnormal
- Metabolizing enzymes [4]: primarily metabolized by aldehyde oxidase and cytochrome P450 (CYP) 2C8
- Effect on breast cancer resistance protein [5]: inhibits
- Tovorafenib share of total plasma radioactivity exposure ([7]; single 100-mg oral dose of [14C]-tovorafenib): 78.7%
- Dose recovered in the urine ([7]; single oral radiolabeled dose): 27%
- Dose recovered unchanged in the feces ([7]; single oral radiolabeled dose): 8.6%
- Dose recovered unchanged in the urine ([7]; single oral radiolabeled dose): 0.2%
- Total radiolabeled dose recovered in the feces ([7]; single oral radiolabeled dose): 65%
